Experimental data: patent publication US20120064531A1, “MODIFIED NUCLEOTIDE AND REAL-TIME POLYMERASE REACTION USING THE SAME” (Korea Institute of Science and Technology, priority 2010, published 2012)

Experiments:
[1] = test system: Therminator γ DNA polymerase; assay: Quantitative real-time PCR analysis (fluorescence after each cycle, Ct standard curve); format: biochemical; conditions: for Sensitivity (Required PCR cycles for 1 copy number: Y-intercept): real-time PCR standard curve, a lower value means more sensitivity; for (Efficiency, %) [100 × (10^(−1/slope) − 1)]: real-time PCR, template 10 nM to 10 fM, 40 cycles, Max = 100%
Method: Total of 40 cycles of PCR was performed, wherein each cycle consists of 94° C. for 10 sec, 54° C. for 15 sec, and 72° C. for 10 sec. After each cycle was completed, fluorescence intensity was measured in real time by using StepOne real-time PCR system (ABI). […] Ct (threshold cycle) value was set up by determining the point at which the threshold encounters the polymerization curve. […] Analysis was performed under the PCR conditions, the equipment and the method identical to that of <example 4>.

[2] = target: T1, Taq DNA polymerase (Thermus aquaticus, UniProt P19821); assay: Primer extension reaction with PAGE to search for a DNA polymerase able to use γF-dGTP as a substrate; format: biochemical; conditions: γF-dGTP 25 uM instead of dGTP; 5 cycles 94/46/60° C.; 20% denaturing PAGE, FIG. 3
T1 construct: purchased New England Biolabs
T1 sequence (P19821 whole entry): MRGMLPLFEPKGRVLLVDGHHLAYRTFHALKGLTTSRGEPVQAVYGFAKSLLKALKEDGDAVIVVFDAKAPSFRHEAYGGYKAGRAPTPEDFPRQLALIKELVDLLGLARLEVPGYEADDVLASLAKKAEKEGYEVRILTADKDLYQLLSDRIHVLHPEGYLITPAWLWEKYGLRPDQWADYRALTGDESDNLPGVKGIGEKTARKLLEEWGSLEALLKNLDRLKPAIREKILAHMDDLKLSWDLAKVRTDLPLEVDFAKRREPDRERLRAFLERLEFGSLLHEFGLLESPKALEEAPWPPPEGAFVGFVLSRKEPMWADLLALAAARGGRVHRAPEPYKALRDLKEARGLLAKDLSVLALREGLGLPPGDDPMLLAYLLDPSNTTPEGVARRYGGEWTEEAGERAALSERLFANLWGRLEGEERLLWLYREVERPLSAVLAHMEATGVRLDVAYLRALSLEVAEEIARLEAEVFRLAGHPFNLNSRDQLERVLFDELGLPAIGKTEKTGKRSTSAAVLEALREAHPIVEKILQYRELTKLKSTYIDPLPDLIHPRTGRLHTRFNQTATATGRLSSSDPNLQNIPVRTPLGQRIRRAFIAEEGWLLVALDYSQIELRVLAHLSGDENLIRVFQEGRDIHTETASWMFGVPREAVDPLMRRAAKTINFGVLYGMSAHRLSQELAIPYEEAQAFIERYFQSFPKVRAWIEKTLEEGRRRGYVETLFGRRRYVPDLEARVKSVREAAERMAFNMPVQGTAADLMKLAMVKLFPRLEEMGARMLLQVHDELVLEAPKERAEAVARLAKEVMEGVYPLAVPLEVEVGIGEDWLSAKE
Method: (§1) In order to search DNA polymerase, primer extension reaction was performed.
(§2) More specifically, the mixed reaction solution was heated by repeating five times a cycle consisting of 20 sec at 94° C., 40 sec at 46° C., and 90 sec at 60° C.
For a control group experiment, Taq DNA polymerase reaction was performed by using dGTP in a natural state instead of γF-dGTP under the same conditions mentioned above.
(§3) After each polymerase reaction, the mixed reaction solution was developed (Vertical Gel Electrophoresis Unit, Sigma-Aldrich) by using 20% denaturing polyacrylamide gel electrophoresis (PAGE). As a result, an image of DNA fluorescence band was obtained by using scanner (Typhoon9400, GE healthcare).

[3] = test system: Therminator γ DNA polymerase; assay: as above; format: biochemical; conditions: γF-dGTP 25 uM instead of dGTP; 5 cycles 94/46/60° C.; 20% denaturing PAGE, FIG. 3
Method: as §1, §2, §3

[4] = target: Phi29 DNA polymerase (Bacillus phage phi29, UniProt P03680); conditions: γF-dGTP 25 uM, 30° C. for 20 min, read every 20 sec; FIG. 6
Chain of Phi29 DNA polymerase (P03680 whole entry): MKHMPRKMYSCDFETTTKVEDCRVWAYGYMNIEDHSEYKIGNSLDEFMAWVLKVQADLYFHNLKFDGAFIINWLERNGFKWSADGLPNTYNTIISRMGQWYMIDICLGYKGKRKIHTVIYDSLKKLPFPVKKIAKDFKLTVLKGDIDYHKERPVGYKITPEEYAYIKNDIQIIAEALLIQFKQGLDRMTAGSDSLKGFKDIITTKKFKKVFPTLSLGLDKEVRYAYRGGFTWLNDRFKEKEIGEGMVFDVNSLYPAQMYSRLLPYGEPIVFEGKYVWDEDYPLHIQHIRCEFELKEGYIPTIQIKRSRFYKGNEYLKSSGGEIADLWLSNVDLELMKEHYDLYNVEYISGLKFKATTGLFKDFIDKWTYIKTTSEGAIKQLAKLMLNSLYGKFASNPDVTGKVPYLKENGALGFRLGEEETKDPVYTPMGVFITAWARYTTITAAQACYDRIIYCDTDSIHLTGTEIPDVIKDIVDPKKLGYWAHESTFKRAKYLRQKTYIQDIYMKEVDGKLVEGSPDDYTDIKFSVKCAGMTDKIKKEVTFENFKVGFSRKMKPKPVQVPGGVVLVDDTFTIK
Method: Real-time RCA (rolling circle amplification) analysis was performed by using 20 ul of mixed reaction solution comprising the primer having SEQ ID: 6 (5′-[…], 100 nM), the template chain having SEQ ID: 7 (5′-[…] […], 100 nM), dATP (25 uM, Promega), dCTP (25 uM, Promega), dTTP (25 uM, Promega), γF-dGTP (25 uM), BSA (100 μg/mL), Phi29 DNA polymerase reaction buffer (New England Biolabs), and Phi29 DNA polymerase. (6 units) The reaction was performed at 30° C. for 20 min and fluorescence intensity at every 20 sec was measured by the equipment used in <example 4>.

SMILES | Sensitivity (Required PCR cycles for 1 copy number: Y-intercept) [1] | (Efficiency, %) [100 × (10^(−1/slope) − 1)] [1] | Use as a substrate by the polymerase (fully extended polymerization product on PAGE) [2] | Use as a substrate by the polymerase (fully extended polymerization product on PAGE) [3] | Fluorescence intensity during real-time RCA [4]
CCCN(CCCN(C)C)c1cc(/C=C2/Sc3ccccc3N2C)c2ccccc2[n+]1-c1ccccc1 [SYBR green I, reference compound] | 47.2 | 80.5% |  |  | 
CC1=CC(C)=[N+]2C1=Cc1ccc(CCC(=O)NCCNP(=O)(O)OP(=O)(O)OP(=O)(O)OC[C@H]3O[C@@H](n4cnc5c(=O)[nH]c(N)nc54)C[C@@H]3O)n1[B-]2(F)F [γF-dGTP] | 41.5 | 93.4% | can use the modified nucleotide as a substrate | can use the modified nucleotide as a substrate | fluorescence intensity increases
